Results taken from publication PMC5908784, “Extracellular loops 2 and 3 of the calcitonin receptor selectively modify agonist binding and efficacy” (Biochemical Pharmacology, 2018).
Changes are numbered by the printed parent chain. Where a SMILES comes first, the peptide text is derived from it. Bridges are numbered along the chain shown (N, C = ends).

Key:
Experiment in all cases: Heterologous whole cell competition binding
Conditions in all cases: heterologous competition of 125I-sCT(8-32), whole cells, mean ± S.E.M., SEM
hCTR T295A = biological target: T1, hCTR T295A (Homo sapiens, UniProt P30988, T295A)
T1 construct: c-Myc (N); expressed in transfected cells
T1 sequence (P30988 25-474 T295A): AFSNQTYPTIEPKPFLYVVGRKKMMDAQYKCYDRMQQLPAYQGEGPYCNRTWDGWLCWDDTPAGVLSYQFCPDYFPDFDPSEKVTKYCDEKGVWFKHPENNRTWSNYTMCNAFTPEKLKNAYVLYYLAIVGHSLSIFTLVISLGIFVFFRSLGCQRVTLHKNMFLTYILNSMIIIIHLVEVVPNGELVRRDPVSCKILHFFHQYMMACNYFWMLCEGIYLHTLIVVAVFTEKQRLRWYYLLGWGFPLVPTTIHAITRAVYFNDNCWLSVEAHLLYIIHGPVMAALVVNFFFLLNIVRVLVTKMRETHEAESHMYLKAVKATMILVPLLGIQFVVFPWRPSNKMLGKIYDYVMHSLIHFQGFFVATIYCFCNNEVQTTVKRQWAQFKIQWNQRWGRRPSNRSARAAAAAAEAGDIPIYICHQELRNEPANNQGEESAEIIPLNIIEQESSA
Method in brief: (§1)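 Overnight competition on intact cells; free ligand washed off; gamma counting. pKi via Cheng-Prusoff correction for radioligand occupancy.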

hCTR M376A = biological target: T2, hCTR M376A (Homo sapiens, UniProt P30988, M376A)
T2 construct: c-Myc (N); expressed in transfected cells
T2 sequence (P30988 25-474 M376A): T1 sequence (P30988 25-474 T295A) with A271T, M352A
Method in brief: as §1

hCTR L298A = biological target: T3, hCTR L298A (Homo sapiens, UniProt P30988, L298A)
T3 construct: c-Myc (N); expressed in transfected cells
T3 sequence (P30988 25-474 L298A): T1 sequence (P30988 25-474 T295A) with A271T, L274A
Method in brief: as §1

hCTR D373A = biological target: T4, hCTR D373A (Homo sapiens, UniProt P30988, D373A)
T4 construct: c-Myc (N); expressed in transfected cells
T4 sequence (P30988 25-474 D373A): T1 sequence (P30988 25-474 T295A) with A271T, D349A
Method in brief: as §1

hCTR Y284A = biological target: T5, hCTR Y284A (Homo sapiens, UniProt P30988, Y284A)
T5 construct: expressed in transfected cells
T5 sequence (P30988 25-474 Y284A): T1 sequence (P30988 25-474 T295A) with Y260A, A271T
Method in brief: as §1

- Ki (hCTR T295A): 32.4 nM
- Ki (hCTR M376A): 7.76 nM
- Ki (hCTR L298A): 20.4 nM
- Ki (hCTR D373A): 17.4 nM
- Ki (hCTR Y284A): 14.5 nM
SMILES: CSCC[C@H](NC(=O)CNC(=O)[C@H](CO)NC(=O)[C@H](Cc1ccccc1)NC(=O)[C@H](CCCNC(=N)N)NC(=O)[C@H](Cc1c[nH]cn1)NC(=O)[C@H](Cc1ccccc1)NC(=O)[C@H](CC(N)=O)NC(=O)[C@H](CC(N)=O)NC(=O)[C@H](CC(C)C)NC(=O)[C@H](CC(N)=O)NC(=O)[C@H](CCCNC(=N)N)NC(=O)[C@H](Cc1c[nH]c2ccccc12)NC(=O)[C@H](Cc1ccc(O)cc1)NC(=O)[C@H](C)NC(=O)[C@H](CO)NC(=O)[C@H](CC(C)C)NC(=O)[C@@H](NC(=O)[C@@H]1CSSC[C@H](N)C(=O)N[C@@H](CO)C(=O)N[C@@H](CC(N)=O)C(=O)N[C@@H](CC(C)C)C(=O)N[C@@H](CO)C(=O)N[C@@H]([C@@H](C)O)C(=O)N1)C(C)C)C(=O)NCC(=O)N[C@@H](Cc1ccccc1)C(=O)NCC(=O)N1CCC[C@H]1C(=O)N[C@@H](CCC(=O)O)C(=O)N[C@H](C(=O)N1CCC[C@H]1C(N)=O)[C@@H](C)O [pCT] (H-CSNLSTCVLSAYWRNLNNFHRFSGMGFGPETP-NH2; disulfide 1-7)
